Laboratory results published in patent US20260297085A1, “1 H-PYRROLO[2,3-B]PYRIDIN-4-YL]-2-OXOPYRROLIDINE-3-CARBONITRILE DERIVATIVES AS TYROSINE KINASE 2 (TYK2) INHIBITORS FOR THE TREATMENT OF INFLAMMATORY DISEASES” (BIOGEN MA INC., priority 2023, published 2026).
Where a name gives a salt, the structure may show the parent alone.

Key:
[1] = target: Tyk2 kinase activity on STAT4 in NK92 cells (Homo sapiens, UniProt P29597); test: pSTAT4 cell assay (MSD; NK92 cells, 30 ng/mL IL2 stimulation); assay type: cell-based; details: 30 ng/mL IL2, 15 minutes
Procedure: The inhibitory potency of compounds of the disclosure against the Tyk2 kinase activity on STAT4 was evaluated using an MSD-platform plate-based assay format. NK92 cells natively expressing STAT4 and Tyk2 were serum-starved to reduce background phosphorylation levels, then cells were treated compounds for 1 hr with a 10-point four-fold dilution series starting at 10 μM. Cells were then stimulated with 30 ng/mL IL2 for 15 minutes. Cells were lysed and […] levels were quantitated using an MSD plate-based assay with anti-STAT4 antibodies. The data were normalized and the percent activity versus log concentration of compound were fitted with a 4-parameter logistic model to generate to generate IC50 curves.

[2] = target: T1, human JAK2 kinase domain (JH1) (Homo sapiens, UniProt O60674); test: JH1 biochemical assay for JAK2 (ADP-Glo kinase assay, recombinant JH1 catalytic domain, JAK3-974 peptide, 15 μM ATP)
T1 construct: recombinantly generated catalytic kinase (also known as JH1) domain of human JAK1, JAK2, JAK3 and TYK2
In short: (§1)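 Kinase 4 nM JAK1 / 0.2 nM JAK2 / 0.3 nM JAK3 / 2 nM TYK2; 50 μM peptide; 100 min. Unused ATP depleted, ADP→ATP, luciferase luminescence. 11-pt 3-fold series from 10 or 1 μM; normalized, 4PL fit → IC50.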

[3] = target: T2, human JAK1 kinase domain (JH1) (Homo sapiens, UniProt P23458); test: JH1 biochemical assay for JAK1 (ADP-Glo kinase assay, recombinant JH1 catalytic domain, JAK3-342 peptide, 35 μM ATP)
T2 construct: recombinantly generated catalytic kinase (also known as JH1) domain of human JAK1, JAK2, JAK3 and TYK2
In short: as §1

[4] = target: T3, human JAK3 kinase domain (JH1) (Homo sapiens, UniProt P52333); test: JH1 biochemical assay for JAK3 (ADP-Glo kinase assay, recombinant JH1 catalytic domain, JAK3-974 peptide, 4 μM ATP)
T3 construct: recombinantly generated catalytic kinase (also known as JH1) domain of human JAK1, JAK2, JAK3 and TYK2
In short: as §1

[5] = target: T4, human TYK2 kinase domain (JH1) (Homo sapiens, UniProt P29597); test: JH1 biochemical assay for TYK2 (ADP-Glo kinase assay, recombinant JH1 catalytic domain, JAK3-974 peptide, 10 μM ATP)
T4 construct: recombinantly generated catalytic kinase (also known as JH1) domain of human JAK1, JAK2, JAK3 and TYK2
T4 sequence (P29597 897-1176 limits assumed): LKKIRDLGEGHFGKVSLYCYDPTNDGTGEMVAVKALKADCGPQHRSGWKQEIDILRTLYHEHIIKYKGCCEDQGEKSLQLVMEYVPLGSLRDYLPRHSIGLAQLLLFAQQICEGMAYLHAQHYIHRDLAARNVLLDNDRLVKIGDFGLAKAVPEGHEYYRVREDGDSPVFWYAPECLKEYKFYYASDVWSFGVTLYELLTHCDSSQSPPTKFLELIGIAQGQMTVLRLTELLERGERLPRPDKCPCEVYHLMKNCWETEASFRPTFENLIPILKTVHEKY
In short: as §1

T1 sequence (O60674 849-1124 limits assumed): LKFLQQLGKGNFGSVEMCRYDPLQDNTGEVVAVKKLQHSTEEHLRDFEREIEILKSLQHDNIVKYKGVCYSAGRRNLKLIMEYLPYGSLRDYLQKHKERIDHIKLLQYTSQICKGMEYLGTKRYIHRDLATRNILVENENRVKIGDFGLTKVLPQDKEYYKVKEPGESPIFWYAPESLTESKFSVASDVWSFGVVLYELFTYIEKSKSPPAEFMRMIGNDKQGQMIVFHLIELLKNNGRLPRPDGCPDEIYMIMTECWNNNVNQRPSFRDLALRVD
T2 sequence (P23458 875-1153 limits assumed): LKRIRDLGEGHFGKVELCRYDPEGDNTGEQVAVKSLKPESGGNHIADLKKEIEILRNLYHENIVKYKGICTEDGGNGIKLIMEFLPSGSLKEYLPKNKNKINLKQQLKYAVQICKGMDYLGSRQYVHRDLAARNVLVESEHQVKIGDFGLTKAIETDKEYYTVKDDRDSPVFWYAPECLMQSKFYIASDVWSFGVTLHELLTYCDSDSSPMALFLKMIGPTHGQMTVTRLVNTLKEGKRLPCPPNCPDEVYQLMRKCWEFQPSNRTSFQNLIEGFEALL
Chain of Tyk2 kinase activity on STAT4 in NK92 cells (P29597 whole entry): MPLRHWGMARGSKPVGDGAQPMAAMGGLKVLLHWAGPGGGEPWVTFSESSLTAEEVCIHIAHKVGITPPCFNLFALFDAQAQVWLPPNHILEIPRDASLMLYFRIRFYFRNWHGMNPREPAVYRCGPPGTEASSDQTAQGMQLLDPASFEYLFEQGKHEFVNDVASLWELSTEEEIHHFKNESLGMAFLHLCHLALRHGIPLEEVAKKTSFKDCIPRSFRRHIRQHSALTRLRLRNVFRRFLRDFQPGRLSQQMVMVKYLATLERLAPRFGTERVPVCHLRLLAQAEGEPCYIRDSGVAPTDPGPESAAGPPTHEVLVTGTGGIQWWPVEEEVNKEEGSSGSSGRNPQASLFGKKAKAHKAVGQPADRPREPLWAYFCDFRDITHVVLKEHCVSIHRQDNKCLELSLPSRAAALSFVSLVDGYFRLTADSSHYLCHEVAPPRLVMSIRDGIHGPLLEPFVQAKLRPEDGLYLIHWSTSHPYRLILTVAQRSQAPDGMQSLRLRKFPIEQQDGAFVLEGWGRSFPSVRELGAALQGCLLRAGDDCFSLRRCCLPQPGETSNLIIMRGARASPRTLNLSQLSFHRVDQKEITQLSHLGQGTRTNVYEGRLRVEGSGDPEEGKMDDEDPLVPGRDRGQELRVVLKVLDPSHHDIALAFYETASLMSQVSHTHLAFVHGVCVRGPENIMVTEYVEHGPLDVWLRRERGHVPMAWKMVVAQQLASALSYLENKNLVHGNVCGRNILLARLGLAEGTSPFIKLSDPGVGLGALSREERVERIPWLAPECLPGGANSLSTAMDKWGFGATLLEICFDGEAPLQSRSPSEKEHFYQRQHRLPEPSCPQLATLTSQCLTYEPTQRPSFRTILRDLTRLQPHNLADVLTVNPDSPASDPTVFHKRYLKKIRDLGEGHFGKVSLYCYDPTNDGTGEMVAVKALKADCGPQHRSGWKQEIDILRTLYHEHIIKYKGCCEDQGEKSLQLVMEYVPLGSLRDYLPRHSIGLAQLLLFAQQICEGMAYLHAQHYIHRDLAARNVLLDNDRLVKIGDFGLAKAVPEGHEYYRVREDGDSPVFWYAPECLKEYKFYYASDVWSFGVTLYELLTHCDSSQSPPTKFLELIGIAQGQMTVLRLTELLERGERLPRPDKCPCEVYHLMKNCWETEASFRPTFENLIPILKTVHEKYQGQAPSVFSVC
T3 sequence (P52333 822-1111 limits assumed): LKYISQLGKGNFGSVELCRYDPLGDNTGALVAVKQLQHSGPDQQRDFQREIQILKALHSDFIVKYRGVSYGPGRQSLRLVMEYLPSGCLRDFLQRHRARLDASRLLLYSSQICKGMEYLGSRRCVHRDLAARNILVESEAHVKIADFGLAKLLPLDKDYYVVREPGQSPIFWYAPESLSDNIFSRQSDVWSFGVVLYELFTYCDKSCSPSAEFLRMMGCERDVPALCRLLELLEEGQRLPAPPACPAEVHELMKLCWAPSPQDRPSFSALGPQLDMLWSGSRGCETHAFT

| Compound | IC50 [1] [nM] | IC50 ([2]; JAK2 JH1, ADP-Glo) [nM] | IC50 ([3]; JAK1 JH1, ADP-Glo) [nM] | IC50 ([4]; JAK3 JH1, ADP-Glo) [nM] | IC50 ([5]; TYK2 JH1, ADP-Glo) [nM] | IC50 ([2]; JH1 kinase domain, ADP-Glo) [nM] | IC50 ([3]; JH1 kinase domain, ADP-Glo) [nM] | IC50 ([4]; JH1 kinase domain, ADP-Glo) [nM] | IC50 ([5]; JH1 kinase domain, ADP-Glo) [nM] |
| --- | --- | --- | --- | --- | --- | --- | --- | --- | --- |
| COc1ccc(-c2cn3nccc3c(N3C[C@@H](C)[C@@](C#N)(C4CC4)C3=O)n2)nc1 [Example 213, (3R,4S)-3-cyclopropyl-1-(6-(5-methoxypyridin-2-yl)pyrazolo[1,5-a]pyrazin-4-yl)-4-methyl-2-oxopyrrolidine-3-carbonitrile] | > 100 |  |  |  |  | 1000 to 5000 | < 100 | 100 to 1000 | 5 to 20 |
| Cc1ccc(-n2nc(N3C[C@@H](C)[C@@](C#N)(C4CC4)C3=O)c3ccncc32)cn1 [Example 282, (3R,4S)-3-cyclopropyl-4-methyl-1-(1-(6-methylpyridin-3-yl)-1H-pyrazolo[3,4-c]pyridin-3-yl)-2-oxopyrrolidine-3-carbonitrile] |  | 1000 to 5000 | 1000 to 5000 | 1000 to 5000 | 20 to 50 |  |  |  |  |
| C[C@@H]1CN(c2ccc3ncc(-c4cnn(C)c4)cn23)C(=O)[C@]1(C#N)C1CC1 [Example 283, (3R,4S)-3-cyclopropyl-4-methyl-1-(3-(1-methyl-1H-pyrazol-4-yl)pyrrolo[1,2-a]pyrimidin-6-yl)-2-oxopyrrolidine-3-carbonitrile] |  | > 10000 | > 10000 | > 10000 | > 100 |  |  |  |  |
| C[C@@H]1CN(c2cc(-c3cnn(C)c3)cc3ncnn23)C(=O)[C@]1(C#N)C1CC1 [Example 285, (3R,4S)-3-cyclopropyl-4-methyl-1-(7-(1-methyl-1H-pyrazol-4-yl)-[1,2,4]triazolo[1,5-a]pyridin-5-yl)-2-oxopyrrolidine-3-carbonitrile] |  | > 10000 | > 10000 | > 10000 | > 100 |  |  |  |  |
| C[C@@H]1CN(c2ncnc3cc(-c4cnn(C)c4)sc23)C(=O)[C@]1(C#N)C1CC1 [Example 286, (3R,4S)-3-cyclopropyl-4-methyl-1-(6-(1-methyl-1H-pyrazol-4-yl)thieno[3,2-d]pyrimidin-4-yl)-2-oxopyrrolidine-3-carbonitrile] |  | 1000 to 5000 | > 10000 | > 10000 | > 100 |  |  |  |  |
| C[C@@H]1CN(c2cc(-c3cnn(C)c3)cc3nccn23)C(=O)[C@]1(C#N)C1CC1 [Example 287, (3R,4S)-3-cyclopropyl-4-methyl-1-(7-(1-methyl-1H-pyrazol-4-yl)imidazo[1,2-a]pyridin-5-yl)-2-oxopyrrolidine-3-carbonitrile] |  | > 10000 | > 10000 | > 10000 | > 100 |  |  |  |  |
| C[C@@H]1CN(c2ccnn3cc(-n4ccccc4=O)cc23)C(=O)[C@]1(C#N)C1CC1 [Example 340, (3R,4S)-3-cyclopropyl-4-methyl-2-oxo-1-(6-(2-oxopyridin-1(2H)-yl)pyrrolo[1,2-b]pyridazin-4-yl)pyrrolidine-3-carbonitrile] |  | > 10000 | > 10000 | 1000 to 5000 | > 100 |  |  |  |  |
| Cc1ncn(-c2cc3c(N4C[C@@H](C)[C@@](C#N)(C5CC5)C4=O)ccnn3c2)n1 [Example 342, (3R,4S)-3-cyclopropyl-4-methyl-1-(6-(3-methyl-1H-1,2,4-triazol-1-yl)pyrrolo[1,2-b]pyridazin-4-yl)-2-oxopyrrolidine-3-carbonitrile] |  | 1000 to 5000 | 1000 to 5000 | 1000 to 5000 | > 100 |  |  |  |  |
| Cc1cnn(-c2cc3c(N4C[C@@H](C)[C@@](C#N)(C5CC5)C4=O)ccnn3c2)n1 [Example 343, (3R,4S)-3-cyclopropyl-4-methyl-1-(6-(4-methyl-2H-1,2,3-triazol-2-yl)pyrrolo[1,2-b]pyridazin-4-yl)-2-oxopyrrolidine-3-carbonitrile] |  | > 10000 | > 10000 | > 10000 | > 100 |  |  |  |  |
| Cc1cnn(-c2cc3nccc(N4C[C@@H](C)[C@@](C#N)(C5CC5)C4=O)c3o2)c1 [Example 345, (3R,4S)-3-cyclopropyl-4-methyl-1-(2-(4-methyl-1H-pyrazol-1-yl)furo[3,2-b]pyridin-7-yl)-2-oxopyrrolidine-3-carbonitrile] |  | 1000 to 5000 | 1000 to 5000 | 1000 to 5000 | 20 to 50 |  |  |  |  |

Other lines, results leading:

| IC50 [1] [nM] | IC50 ([2]; JAK2 JH1, ADP-Glo) [nM] | IC50 ([3]; JAK1 JH1, ADP-Glo) [nM] | IC50 ([4]; JAK3 JH1, ADP-Glo) [nM] | IC50 ([5]; TYK2 JH1, ADP-Glo) [nM] | IC50 ([2]; JH1 kinase domain, ADP-Glo) [nM] | IC50 ([3]; JH1 kinase domain, ADP-Glo) [nM] | IC50 ([4]; JH1 kinase domain, ADP-Glo) [nM] | IC50 ([5]; JH1 kinase domain, ADP-Glo) [nM] | Compound |
| --- | --- | --- | --- | --- | --- | --- | --- | --- | --- |
| > 100 | < 100 | < 100 | < 100 | < 5 |  |  |  |  | C[C@@H]1OC[C@@H]1n1cc(-c2cn3ncc(F)c3c(N3C[C@@H](C)[C@@](C#N)(C4CC4)C3=O)n2)cn1 (relative stereo) [Example 305, (3R,4S)-3-cyclopropyl-1-(3-fluoro-6-(1-((2S,3S)-2-methyloxetan-3-yl)-1H-pyrazol-4-yl)pyrazolo[1,5-a]pyrazin-4-yl)-4-methyl-2-oxopyrrolidine-3-carbonitrile and (3R,4S)-3-cyclopropyl-1-(3-fluoro-6-(1-((2R,3R)-2-methyloxetan-3-yl)-1H-pyrazol-4-yl)pyrazolo[1,5-a]pyrazin-4-yl)-4-methyl-2-oxopyrrolidine-3-carbonitrile] |
| > 100 | < 100 | < 100 | < 100 | < 5 |  |  |  |  | C[C@@H]1CN(c2ccnn3cc(-c4cnn([C@@H]5COCC(F)(F)C5)c4)cc23)C(=O)[C@]1(C#N)C1CC1 (single isomer, unassigned) [Example 328] |
| 50 to 100 | < 100 | < 100 | < 100 | < 5 |  |  |  |  | C[C@@H]1CN(c2nc(-c3ccc(N(C)C(=O)OC(C)(C)C)nc3)cn3nccc23)C(=O)[C@]1(C#N)C1CC1 [Example 266, tert-butyl (5-(4-((3R,4S)-3-cyano-3-cyclopropyl-4-methyl-2-oxopyrrolidin-1-yl)pyrazolo[1,5-a]pyrazin-6-yl)pyridin-2-yl)(methyl)carbamate trifluoroacetate] |
| 50 to 100 | < 100 | < 100 | < 100 | < 5 |  |  |  |  | C[C@@H]1CN(c2nc(-c3cnn(CC4(C)COC4)c3)cn3ncc(F)c23)C(=O)[C@]1(C#N)C1CC1 [Example 303, (3R,4S)-3-cyclopropyl-1-(3-fluoro-6-(1-((3-methyloxetan-3-yl)methyl)-1H-pyrazol-4-yl)pyrazolo[1,5-a]pyrazin-4-yl)-4-methyl-2-oxopyrrolidine-3-carbonitrile] |
| > 100 | 100 to 1000 | 100 to 1000 | < 100 | 5 to 20 |  |  |  |  | CC(C)[C@@]1(C#N)C(=O)N(c2nc(-c3cnn(C)c3)cn3ncc(F)c23)C[C@H]1C [Example 310, (3R,4S)-1-(3-fluoro-6-(1-methyl-1H-pyrazol-4-yl)pyrazolo[1,5-a]pyrazin-4-yl)-3-isopropyl-4-methyl-2-oxopyrrolidine-3-carbonitrile] |
| > 100 | 100 to 1000 | 1000 to 5000 | 100 to 1000 | 20 to 50 |  |  |  |  | C[C@@H]1CN(c2ccnn3cc(-n4cc(C5CN(C)CCO5)cn4)cc23)C(=O)[C@]1(C#N)C1CC1 (stereo partly drawn) [Example 317, (3R,4S)-3-cyclopropyl-4-methyl-1-(6-(4-(4-methylmorpholin-2-yl)-1H-pyrazol-1-yl)pyrrolo[1,2-b]pyridazin-4-yl)-2-oxopyrrolidine-3-carbonitrile] |
|  | 100 to 1000 | 100 to 1000 | 100 to 1000 | 20 to 50 |  |  |  |  | C[C@@H]1CN(c2cc(-c3cnn(C)c3)cc3nscc23)C(=O)[C@]1(C#N)C1CC1 [Example 351, (3R,4S)-3-cyclopropyl-4-methyl-1-(6-(1-methyl-1H-pyrazol-4-yl)benzo[c]isothiazol-4-yl)-2-oxopyrrolidine-3-carbonitrile] |
